The source of these data is ChEMBL document CHEMBL4715827, “Structure-guided design of pyridoclax derivatives based on Noxa / Mcl-1 interaction mode” (Eur J Med Chem, 2018).

Active and inactive are the calls of the source. The calls are words filed in the database; no cut-off is given here.

Assay [1] relates to IGROV1-R10. Briefly: Pro-apoptotic activity in human IGROV1-R10 cells transfected with Bcl-xL siRNA assessed as increase in cleaved PARP expression at 25 uM measured after 24 hrs by Western blot analysis. In kind it is functional, cell-based.
Assay [2] is described as follows: Pro-apoptotic activity in human IGROV1-R10 cells transfected with Bcl-xL siRNA assessed as condensed nuclei at 25 uM measured after 24 hrs by DAPI staining based fluorescence microscopy analysis relative to control. In kind it is functional.
Assay [3] has as its system IGROV1-R10. The experiment in a line: Pro-apoptotic activity in human IGROV1-R10 cells transfected with Bcl-xL siRNA assessed as morphological alteration at 25 uM measured after 24 hrs by DAPI staining based fluorescence microscopy analysis. The class given is functional, cell-based.
For assay [4], the system named is IGROV1-R10. The experiment in a line: Pro-apoptotic activity in human IGROV1-R10 cells transfected with Bcl-xL siRNA assessed as increase in cleaved caspase-3 expression at 25 uM measured after 24 hrs by Western blot analysis. The class given is functional, cell-based. (In general: In western blotting, separated proteins are transferred to a membrane and probed.)

Assay [5] can be described thus: Pro-apoptotic activity in human IGROV1-R10 cells transfected with control siRNA assessed as accumulation at sub G1 phase at 25 uM incubated for 24 hrs by propidium iodide staining based flow cytometry analysis (reference value: 4.5% ). The class given is functional.
Assay [6] can be described thus: Pro-apoptotic activity in human IGROV1-R10 cells transfected with Bcl-xL siRNA assessed as accumulation at sub G1 phase at 25 uM incubated for 24 hrs by propidium iodide staining based flow cytometry analysis (reference value: 17% ). The class given is functional. (In general: Flow cytometry measures light scatter and fluorescence of single cells or particles in a stream.)

Assay [7] is described as follows: Pro-apoptotic activity in human IGROV1-R10 cells assessed as accumulation at sub G1 phase at 25 uM incubated for 24 hrs in presence of ABT-737 by propidium iodide staining based flow cytometry analysis (reference value: 21.2% ). In kind it is functional.
Assay [8] in a line: Pro-apoptotic activity in human IGROV1-R10 cells assessed as accumulation at sub G1 phase at 15 uM incubated for 24 hrs by propidium iodide staining based flow cytometry analysis (reference value: 2 % ). In kind it is functional.
Assay [9] can be described thus: Pro-apoptotic activity in human IGROV1-R10 cells assessed as accumulation at sub G1 phase at 10 uM incubated for 24 hrs by propidium iodide staining based flow cytometry analysis (reference value: 2 % ). The class given is functional.
The next assay has as its system A2780. The experiment in a line: Pro-apoptotic activity in human A2780 cells assessed as increase in caspase3/7 positive cells at 25 uM measured after 24 hrs in presence of ABT-737 by DAPI staining based fluorescence microscopy analysis. In kind it is functional, cell-based.
A short description of assay [10]: Pro-apoptotic activity in human IGROV1-R10 cells assessed as accumulation at sub G1 phase at 25 uM incubated for 24 hrs by propidium iodide staining based flow cytometry analysis (reference value: 2.8% ). The class given is functional.
The nature of assay [11]: Pro-apoptotic activity in human IGROV1-R10 cells assessed as accumulation at sub G1 phase at 15 uM incubated for 24 hrs in presence of ABT-737 by propidium iodide staining based flow cytometry analysis (reference value: 10.8% ). In kind it is functional.
A further assay concerns SK-OV-3. The experiment in a line: Pro-apoptotic activity in human SKOV3 cells assessed as increase in caspase3/7 positive cells at 25 uM measured after 24 hrs in presence of ABT-737 by DAPI staining based fluorescence microscopy analysis. In kind it is functional, cell-based.
The nature of assay [12]: Pro-apoptotic activity in human IGROV1-R10 cells assessed as accumulation at sub G1 phase at 10 uM incubated for 24 hrs in presence of ABT-737 by propidium iodide staining based flow cytometry analysis (reference value: 10.8% ). The class given is functional.
Assay [13] deals with Induced myeloid leukemia cell differentiation protein Mcl-1 (Homo sapiens) (UniProt Q07820). The experiment in a line: Inhibition of FAM-Bim peptide binding to MCL-1 in human MCF-7 cells assessed as disruption by BRET assay. Conditions: MCF7. In kind it is cell-based. Background: Bioluminescence resonance energy transfer reports proximity on the nanometre scale.
Chain of Induced myeloid leukemia cell differentiation protein Mcl-1 (Homo sapiens) (Q07820 whole entry): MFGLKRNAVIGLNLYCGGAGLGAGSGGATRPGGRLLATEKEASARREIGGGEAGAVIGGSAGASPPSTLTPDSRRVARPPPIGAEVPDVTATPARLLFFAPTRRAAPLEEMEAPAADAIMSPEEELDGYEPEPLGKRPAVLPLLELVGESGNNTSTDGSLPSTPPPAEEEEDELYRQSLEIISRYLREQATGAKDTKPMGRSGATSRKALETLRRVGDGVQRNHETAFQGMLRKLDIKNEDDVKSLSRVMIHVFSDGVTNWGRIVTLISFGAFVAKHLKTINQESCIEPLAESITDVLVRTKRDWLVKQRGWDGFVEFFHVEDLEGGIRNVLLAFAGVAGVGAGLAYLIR

Regarding `Cc1cc(-c2ncc(-c3cccc(CC#N)c3)cc2/C=C/c2ccccc2)cnc1-c1cccnc1`, the result in the assay on IGROV1-R10 [1] and in the assay with IGROV1-R10 [4] was Active. For the same compound, the figures for the Activity in assay [2], in assay [5] and in [6] were 25.3%, 53% and 36.9%, respectively. For the same compound, the result in the assay with IGROV1-R10 [3] was inactive.

As for `Cc1cc(-c2ncc(-c3cccnc3)cc2/C=C/c2ccccc2)cnc1-c1cccc(O)c1`, the outcome with IGROV1-R10 [1] and in the assay on IGROV1-R10 [4] was Active. Also, the Activity in [2] was 35.9%; in [5], 12.5%; in assay [6], 52.2%. Further, the result with IGROV1-R10 [3] was inactive.

For the compound `Cc1cc(-c2ncc(-c3cccnc3)cc2/C=C/c2ccccc2)cnc1-c1cccnc1`, the outcome in the assay with IGROV1-R10 [1], with IGROV1-R10 [4], with A2780 and in the assay with SK-OV-3 was Active. In addition, the Activity is 70.99% in assay [7]; 63.4% in assay [2]; 4.9% in assay [8]; 2.5% in [9]; 6.46% in assay [10]; 62.76% in [6]. The values for the Activity in assay [11] and in [12] were 36.1% and 22.5%, respectively. In addition, in the assay with IGROV1-R10 [3], the outcome was inactive.

Take `Cc1cc(-c2ncc(-c3cccc(O)c3)cc2/C=C/c2ccccc2)cnc1-c1cccnc1`: the outcome with IGROV1-R10 [1] and in the assay on IGROV1-R10 [4] was Active. For the same compound, the values for the Activity in assay [2], in [5] and in [6] were 19.9%, 5.5% and 37.5%, respectively. Besides, the outcome in the assay on IGROV1-R10 [3] was inactive.

Turning to `Cc1cc(-c2ncc(-c3cccc(C/C(N)=N/O)c3)cc2/C=C/c2ccccc2)cnc1-c1cccnc1`, the outcome in the assay on IGROV1-R10 [1] and in the assay with IGROV1-R10 [4] was Active. Moreover, the Activity came out at 28% in [2], 4.8% in assay [5] and 45.3% in assay [6]. In addition, in the assay on IGROV1-R10 [3], the result was inactive.

In the case of `Cc1cc(-c2ncc(-c3cccnc3)cc2/C=C/c2ccccc2)cnc1-c1cccc(CC#N)c1`, the outcome in the assay with IGROV1-R10 [1] and in the assay with IGROV1-R10 [4] was Active. The Activity in assay [2] is recorded as 35.1%; in assay [5], 6.5%; in [6] it was 43%. Moreover, the outcome in the assay with IGROV1-R10 [3] was inactive.

With `Cc1cc(-c2ncc(-c3cccnc3)cc2/C=C/c2ccccc2)cnc1-c1cccc(CC(=O)O)c1`, the outcome with IGROV1-R10 [1] was Active. Further, the Activity is given as 7.8% in assay [2], 6% in [5] and 14.5% in [6]. Besides, the outcome in the assay on IGROV1-R10 [3] and in the assay with IGROV1-R10 [4] was inactive. In addition, the inhibition entry in [13] is “inactive”.

As for `Cc1cc(-c2ncc(-c3cccc(CC(=O)O)c3)cc2/C=C/c2ccccc2)cnc1-c1cccnc1`, the outcome in the assay on IGROV1-R10 [1] and with IGROV1-R10 [4] was Active. The Activity in [2] is recorded as 31.7%; in assay [5], 4.6%; in assay [6], 46.8%. Further, the outcome with IGROV1-R10 [3] was inactive.
